According to patent US7875343B2, “Anti-microbial carpet underlay and method of making” (L & P Property Management Company, priority 2003, dated 2011):
Read-outs that look alike come from different tables or passages of the source.

How the values were obtained:
[1] = test system: Staphylococcus aureus; conditions: unwashed foam side specimen with 751 ppm of zinc pyrithione
Description: (§1) Biocidal effectiveness of the rebonded carpet pad 12 and/or film 18 according the present invention may be determined by measuring inhibition of growth of bacterial and/or fungus using AATCC (American Association of Textile Chemists and Colorists) 174, ASTM E2180-1, and ASTM D 3273 test protocols compared to non-treated control standards. The AATCC 174 protocol was developed for determining the antimicrobial activity of new carpet materials.
(§2) A number of specimens of carpet underlay 10 were made by methods described above, with various concentrations of zinc pyrithione in the binder 16 and film 18 for testing to determine levels that provide an effective antimicrobial effect. The specimens included a film 18 on one side as illustrated in FIG. 1. This allowed testing of the foam side of the specimens to indicate antimicrobial effect of the pad 12 without film 18 and testing of the film side to indicate antimicrobial effect of the pad 12 with film 18. The AATCC 174 test method provides for testing both unwashed and washed samples. Washed samples were treated according to the AATCC 138 protocol.
(§3) The AATCC 174 test method includes three parts. Part I is a qualitative test for antibacterial activity. Test specimens are placed into contact with a nutrient agar which has been streaked with a bacterial culture. The specimens are then incubated. After incubation, a clear area of interrupted growth underneath and along the sides of the test specimen indicates antibacterial activity of the specimen. Standard strains of bacteria are used, with Staphylococcus aureus and Klebsiella pneumoniae being the representative organisms.

[2] = test system: Klebsiella pneumoniae
Description: as §1, §2, §3

[3] = test system: Staphylococcus aureus
Description: as §1, §2
(§4) The AATCC 174, Part II test provides a quantitative procedure for the evaluation of the degree of antibacterial activity. Test specimens are inoculated with the test microorganisms. After incubation, the bacteria are eluted from specimens by shaking in 100 milliliters of liquid. The number of bacteria present in the liquid is determined and the percent reduction produced by the specimen is calculated.

[4] = test system: Klebsiella pneumoniae; remark: listed apart in the source
Description: as §1, §2, §4

[5] = test system: Aspergillus niger; conditions: film side specimens, total minimum combined concentration (pad + film) of about 1600 ppm
Description: as §1

[6] = test system: Aspergillus niger; conditions: 28 degrees C., seven days
Description: as §1, §2

[7] = test system: Aspergillus niger
Description: as §1
Inhibitory mold activity was also tested by the ASTM E2180-01 test method. […] The total combined concentration is the sum of the concentration in the pad 12 of a specimen and the concentration in the film 18 of the specimen.

[8] = all unwashed and washed film and foam side specimens, 500 ppm or more in the film and 1096 ppm in the pad
[9] = washed foam side specimen containing 751 ppm of zinc pyrithione
[10] = washed foam side specimen containing 1096 ppm of zinc pyrithione

Q: How did the “zone of inhibition for Staphylococcus aureus” value [1] turn out when `[O-]n1ccccc1=S.[O-]n1ccccc1=S.[Zn+2]` [zinc pyrithione, Bis(1-hydroxy-2(1H)-pyridinethionato-O,S)-(T-4)Zinc] was run?
A: The value was “two”.

Q: What about the “growth of Klebsiella pneumoniae underneath and along the sides of the specimen” value ([2]; all unwashed and washed foam side specimens with 1096 ppm or more of zinc pyrithione) of the same molecule?
A: The value was “inhibited the growth”.

Q: And the “zone of inhibition for Klebsiella pneumoniae” value ([2]; unwashed foam side specimen with 751 ppm of zinc pyrithione)?
A: The value was “one”.

Q: What about the “average reduction in Staphylococcus aureus” value [3, 8] of the same molecule?
A: The value was 92%.

Q: What about the “reduction in Staphylococcus aureus (minimum over specimens)” value [3, 8] of the same molecule?
A: Its value is “at least 66%”.

Q: What about the “reduction in the numbers of Staphylococcus aureus” value [3, 9] of the same molecule?
A: The value was 90%.

Q: And the “reduction in the numbers of Staphylococcus aureus” value [3, 10]?
A: The value was 90%.

Q: What about the “reduction in the numbers of Klebsiella pneumoniae” value [4, 9] of the same molecule?
A: Its value is 90%.

Q: And the “reduction in the numbers of Klebsiella pneumoniae” value [4, 10]?
A: Its value is 90%.

Q: And the “Aspergillus niger mold colonization” value [5]?
A: The value was “No Aspergillus niger mold colonization was observed”.

Q: And the “fungus growth (Aspergillus niger)” value ([6]; washed and unwashed film side samples, 1500 ppm or greater of zinc pyrithione in the film)?
A: Its value is “No growth was observed”.

Q: And the “fungus growth (Aspergillus niger)” value ([6]; washed and unwashed foam side samples, 1096 ppm of zinc pyrithione in the pad)?
A: The value was “no observable fungus growth”.

Q: And the “inhibitory activity for Aspergillus niger” value ([7]; film side specimens, total minimum combined concentration (pad + film) of 1600 ppm)?
A: The value was “Good inhibitory activity”.

Q: What about the “inhibitory activity for Aspergillus niger” value ([7]; total combined concentration of 1251 ppm, i.e. 751 ppm in the pad and 500 ppm in the film) of the same molecule?
A: The value was “Good results were achieved for some, but not all, specimens”.
